Measurements published in PubChem BioAssay AID651801 (Broad Institute, 2012).
Active and inactive are the calls of the source.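 Rule for the calls: active = signal falling with dose and AC50 at most twice the top valid tested dose; inconclusive = flat fit with inhibition of 30 to 70%, or poor fit; inactive = the rest, plus effects in the rising direction.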

Molecular target: Kelch-like ECH-associated protein 1 (Homo sapiens) (UniProt Q14145)
Assay: Keap1-Nrf2 protein-protein interaction inhibitors, dose response, biochemical, fluorescence polarization, dry powder, set 2 (AID 651801)
Conditions: Keap1 Kelch/FITC-Nrf2 peptide fluorescence polarization

Sequence of Kelch-like ECH-associated protein 1 (Homo sapiens) (Q14145 whole entry, looked up): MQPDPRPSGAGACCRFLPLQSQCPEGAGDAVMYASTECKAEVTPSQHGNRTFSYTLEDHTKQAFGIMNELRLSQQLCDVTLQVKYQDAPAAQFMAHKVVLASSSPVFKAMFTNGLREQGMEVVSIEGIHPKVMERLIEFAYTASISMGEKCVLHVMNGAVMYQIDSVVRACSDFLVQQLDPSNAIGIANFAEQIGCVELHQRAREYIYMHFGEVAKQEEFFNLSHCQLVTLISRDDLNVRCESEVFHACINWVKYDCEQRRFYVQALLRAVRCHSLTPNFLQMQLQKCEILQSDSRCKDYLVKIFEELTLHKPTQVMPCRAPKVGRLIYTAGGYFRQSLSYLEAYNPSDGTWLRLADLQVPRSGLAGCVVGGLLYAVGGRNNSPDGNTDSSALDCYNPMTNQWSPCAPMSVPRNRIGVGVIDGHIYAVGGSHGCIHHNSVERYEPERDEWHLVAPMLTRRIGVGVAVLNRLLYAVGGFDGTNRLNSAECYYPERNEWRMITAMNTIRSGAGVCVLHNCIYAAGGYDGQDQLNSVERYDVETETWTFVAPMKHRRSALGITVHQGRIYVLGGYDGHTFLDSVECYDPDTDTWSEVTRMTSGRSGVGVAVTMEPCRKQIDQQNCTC

| activity change, negative = inhibition (at 50 µM (top of the series)) | SMILES | also measured |
| --- | --- | --- |
| inactive | O=C(O)C1CCCCC1C(=O)N1CCc2ccccc2[C@H]1C(=O)NC12CC3CC(CC(C3)C1)C2 (stereo partly drawn) |  |
| inactive | CCOC(=O)C(C(=O)OCC)c1nc(NS(=O)(=O)c2c(C)cc(C)cc2C)c2ccccc2n1 |  |
| inactive | O=C1c2ccccc2C(=O)N1CC1=NCCc2ccccc21 |  |
|  | O=C(O)[C@H]1C2C=CC(C2)[C@H]1C(=O)N1CCc2ccccc2C1CN1C(=O)c2ccccc2C1=O (stereo partly drawn) | AC50: > 100 µM (inactive) |
| inactive | O=S(=O)(Nc1nc(NCC2CCCCC2)nc2ccccc12)c1ccccc1 |  |
| inactive | Cc1cc(C)c(S(=O)(=O)Nc2nc(NCCO)nc3ccccc23)c(C)c1 |  |
| inactive | O=C(O)[C@H]1CCCC[C@H]1C(=O)N1CCC2=C(CCCC2)C1CN1C(=O)c2ccccc2C1=O (stereo partly drawn) | AC50: > 100 µM (inactive) |
|  | Cc1ccc(S(=O)(=O)Nc2cc(C(C(=O)OC(C)C)C(=O)C(F)(F)F)c(O)c3ccccc23)c(C)c1 (stereo not drawn) | AC50: 2.43 µM |
| inactive | O=C(O)CCC(=O)N1CCc2ccccc2C1CN1C(=O)c2ccccc2C1=O (stereo not drawn) |  |
| inactive | C=CC(=O)NC[C@@H]1c2ccccc2CCN1C(=O)[C@@H]1CCCC[C@@H]1C(=O)O |  |
| inactive | COc1ccccc1CCNC(=O)[C@@H]1c2ccccc2CCN1C(=O)C1CCCCC1C(=O)O (stereo partly drawn) |  |
| inactive | O=C(O)C1CCCCC1C(=O)N1CCCCC1CN1C(=O)c2ccccc2C1=O (stereo not drawn) |  |
|  | O=C(O)C1CCCCC1C(=O)N1CCc2ccccc2C1CN1C(=O)[C@H]2CCCC[C@H]2C1=O (stereo partly drawn) | AC50: > 100 µM (inactive) |
| inactive | COC(=O)[C@@H]1CCCC[C@@H]1C(=O)N1CCc2ccccc2[C@H]1CN1C(=O)c2ccccc2C1=O |  |
| inactive | O=C(Cc1ccccc1)NC[C@@H]1c2ccccc2CCN1C(=O)[C@@H]1CCCC[C@@H]1C(=O)O |  |
| inactive | COc1ccc(CCN=C2C=C(NS(=O)(=O)c3c(C)cc(C)cc3C)c3ccccc3C2=O)cc1 |  |
| inactive | O=C(NC[C@@H]1c2ccccc2CCN1C(=O)[C@@H]1CCCC[C@@H]1C(=O)O)c1ccccc1 |  |
|  | O=C(O)Cc1ccccc1C(=O)N1CCc2ccccc2[C@H]1CN1C(=O)c2ccccc2C1=O | AC50: 23.6 µM |
| inactive | O=C(O)CC(=O)N1CCc2ccccc2C1CN1C(=O)c2ccccc2C1=O (stereo not drawn) |  |
| inactive | O=C(O)/C=C\C(=O)N1CCc2ccccc2C1CN1C(=O)c2ccccc2C1=O (stereo not drawn) |  |
|  | O=C(O)C1CCCCC1C(=O)N1CCc2ccccc2C1CN1Cc2ccccc2C1=O (stereo not drawn) | AC50: 23.6 µM |
|  | COC(=O)C(C(=O)OC)c1cc(NS(=O)(=O)c2c(C)cc(C)cc2C)c2ccccc2c1O | AC50: 39.5 µM |
|  | Cc1ccccc1S(=O)(=O)Nc1cc(C(C(=O)OC(C)C)C(=O)C(F)(F)F)c(O)c2ccccc12 (stereo not drawn) | AC50: 3.56 µM |
|  | CC(=O)Nc1cc(NS(=O)(=O)c2c(C)cc(C)cc2C)c2ccccc2c1O | AC50: 9.18 µM |
| inactive | Cc1ccc(S(=O)(=O)NNc2nc(N3CC(O)CC3C(=O)O)nc3ccccc23)cc1 (stereo not drawn) |  |
| inactive | O=C(NC[C@@H]1c2ccccc2CCN1C(=O)[C@@H]1CCCC[C@@H]1C(=O)O)OCC1c2ccccc2-c2ccccc21 |  |

| activity change, negative = inhibition (at 50 µM (top of the series)) | SMILES | also measured |
| --- | --- | --- |
| inactive | Cc1cc(C)c(S(=O)(=O)Nc2ncnc3ccccc23)c(C)c1 |  |
| inactive | CCOC(=O)Cc1nc(NS(=O)(=O)c2c(C)cc(C)cc2C)c2ccccc2n1 |  |
|  | CC(C)OC(=O)C(C(=O)C(F)(F)F)c1cc(NS(=O)(=O)c2ccccc2)c2ccccc2c1O (stereo not drawn) | AC50: 30 µM |
| inactive | O=C(O)C1CCCCC1C(=O)N1CCc2ccccc2[C@H]1C(=O)NCCc1ccccc1 (stereo partly drawn) |  |
|  | O=C(NCCc1ccccc1)c1ccccc1C(=O)NC[C@@H]1c2ccccc2CCN1C(=O)C1CCCCC1C(=O)O (stereo partly drawn) | AC50: > 100 µM (inactive) |
| inactive | O=C(O)[C@H]1CCCC[C@H]1C(=O)N1CCc2ccccc2[C@H]1CNc1nc(Cl)nc2ccccc12 |  |
| inactive | Cc1ccc(S(=O)(=O)NC2=CC(=N[C@@H](C)C(=O)OC(C)(C)C)C(=O)c3ccccc32)c(C)c1 |  |
| inactive | O=C(Oc1cc(CN2C(=O)c3ccccc3C2=O)c2ccccc2[n+]1[O-])c1cccc(Cl)c1 |  |
| inactive | O=C1c2ccccc2C(=O)N1C[C@H]1NCCc2ccccc21 |  |
| inactive | Cc1cc(C)c(S(=O)(=O)Nc2nc(N(C)C)nc3ccccc23)c(C)c1 |  |
| inactive | O=C(O)C1CCCCC1C(=O)NCC1c2ccccc2CCN1C(=O)Cc1ccccc1 (stereo not drawn) |  |
| inactive | COC(=O)CNc1nc(NS(=O)(=O)c2c(C)cc(C)cc2C)c2ccccc2n1 |  |
| inactive | O=C(O)[C@H]1CCCC[C@H]1C(=O)N1CCc2ccccc2C1 (racemic) |  |
| inactive | O=C(O)[C@H]1CCCC[C@H]1C(=O)NC(CN1C(=O)c2ccccc2C1=O)c1ccccc1 (stereo partly drawn) |  |
| inactive | Cc1cc(C)c(S(=O)(=O)Nc2nc(C(C(=O)OC(C)C)C(=O)C(F)(F)F)nc3ccccc23)c(C)c1 (stereo not drawn) |  |
| inactive | C[C@@H](NC(=O)C1CCCC[C@H]1C(=O)O)c1ccccc1 (mixture of isomers) |  |
| inactive | Cc1ccc(S(=O)(=O)NNc2nc(C(C(=O)OC(C)C)C(=O)C(F)(F)F)nc3ccccc23)cc1 (stereo not drawn) |  |
| inactive | C[C@H](NC(=O)C1CCCC[C@H]1C(=O)O)c1ccccc1 (mixture of isomers) |  |
|  | O=C1c2ccccc2C(=O)N1CC1c2ccccc2CCN1C(=O)Cc1ccccc1 (stereo not drawn) | activity change, negative = inhibition (at 12 µM (top of the series)): inactive |
| inactive | O=C1c2ccccc2C(=O)N1C[C@@H]1c2ccccc2CCN1C(=O)C1CCCCC1 |  |
| inactive | COC(=O)[C@H]1CCCC[C@H]1C(=O)N1CCc2ccccc2[C@H]1CN1C(=O)c2ccccc2C1=O |  |
| inactive | NC(=O)[C@H]1CCCC[C@H]1C(=O)N1CCc2ccccc2[C@H]1CN1C(=O)c2ccccc2C1=O |  |
|  | NC(=O)c1ccccc1C(=O)NC[C@@H]1c2ccccc2CCN1C(=O)[C@@H]1CCCC[C@@H]1C(=O)O | AC50: > 100 µM (inactive) |
|  | O=C(O)C1CCCCC1C(=O)N1CCc2ccccc2C1CN1C(=O)Cc2ccccc2C1=O (stereo not drawn) | AC50: > 100 µM (inactive) |
|  | O=C(NCCO)c1ccccc1C(=O)NC[C@@H]1c2ccccc2CCN1C(=O)C1CCCCC1C(=O)O (stereo partly drawn) | AC50: > 100 µM (inactive) |
| inactive | O=C1c2ccccc2C(=O)N1C[C@@H]1c2ccccc2CCN1C(=O)OCc1ccccc1 |  |

| activity change, negative = inhibition (at 50 µM (top of the series)) | SMILES | also measured |
| --- | --- | --- |
| inactive | O=C(O)[C@H]1CCCC[C@H]1C(=O)N1CCc2ccccc2C1CCN1C(=O)c2ccccc2C1=O (stereo partly drawn) |  |
| inactive | Cc1ccc(S(=O)(=O)NC[C@@H]2c3ccccc3CCN2C(=O)[C@@H]2CCCC[C@@H]2C(=O)O)c(C)c1 |  |
| inactive | COC(=O)[C@@H]1CCCC[C@@H]1C(=O)N1CCc2ccccc2[C@@H]1CN1C(=O)c2ccccc2C1=O |  |
| inactive | O=C(NC[C@@H]1c2ccccc2CCN1C(=O)[C@@H]1CCCC[C@@H]1C(=O)O)c1ccc(CCl)cc1 |  |
| inactive | O=C(O)c1ccccc1C(=O)N1CCc2ccccc2C1CN1C(=O)c2ccccc2C1=O (stereo not drawn) |  |
| inactive | O=C(O)[C@H]1CCCC[C@H]1C(=O)N1CCc2ccccc2[C@H]1CNS(=O)(=O)c1ccccc1 |  |
| inactive | O=C(O)c1ccccc1C(=O)NC[C@@H]1c2ccccc2CCN1C(=O)[C@@H]1CCCC[C@@H]1C(=O)O |  |
|  | Cc1ccc(S(=O)(=O)Nc2cc(C(C(=O)OC(C)C)C(=O)C(F)(F)F)c(O)c3ccccc23)cc1 (stereo not drawn) | AC50: 7.4 µM |
| inactive | O=C(NCCCN1CCOCC1)c1ccccc1C(=O)NC[C@@H]1c2ccccc2CCN1C(=O)C1CCCCC1C(=O)O (stereo partly drawn) |  |
| inactive | O=C(O)[C@@H]1CCCN1C(=O)N1CCc2ccccc2[C@H]1CN1C(=O)c2ccccc2C1=O |  |
| inactive | CCOC(=O)C(C(=O)OCC)c1cc(CN2C(=O)c3ccccc3C2=O)c2ccccc2n1 |  |
|  | O=C(NC[C@@H]1c2ccccc2CCN1C(=O)[C@@H]1CCCC[C@@H]1C(=O)O)c1ccc(CN2CCOCC2)cc1 | AC50: > 100 µM (inactive) |
| inactive | Cc1cc(C)c(S(=O)(=O)Nc2cc(C(C(=O)OCc3ccccc3)C(=O)OCc3ccccc3)c(O)c3ccccc23)c(C)c1 |  |
| inactive | O=C(O)C1CCCCC1C(=O)Nc1ccccc1CN1C(=O)c2ccccc2C1=O (stereo not drawn) |  |
| inactive | Cc1ccc(S(=O)(=O)NNc2nc(NCC(N)=O)nc3ccccc23)cc1 |  |
| inactive | CC(C)CNc1nc(NS(=O)(=O)c2ccccc2)c2ccccc2n1 |  |
|  | Cc1cc(C)c(S(=O)(=O)Nc2cc(C(C(=O)OC(C)C)C(=O)C(F)(F)F)c(O)c3ccccc23)c(C)c1 (stereo not drawn) | AC50: 0.798 µM |
| inactive | CCOC(=O)C(C(=O)OCC)c1cc(CNS(=O)(=O)c2ccc(C)cc2C)c2ccccc2n1 |  |
| inactive | O=C(O)CCCC(=O)N1CCc2ccccc2C1CN1C(=O)c2ccccc2C1=O (stereo not drawn) |  |
| inactive | O=C(O)[C@H]1CCCC[C@H]1C(=O)N1CCc2ccccc2[C@H]1CNS(=O)(=O)c1ccc([N+](=O)[O-])cc1 |  |
| inactive | Cc1ccc(S(=O)(=O)NC(=O)[C@@H]2c3ccccc3CCN2C(=O)[C@@H]2CCCC[C@@H]2C(=O)O)cc1 | AC50: > 100 µM (inactive) |
| inactive | O=C(NC[C@@H]1c2ccccc2CCN1C(=O)[C@@H]1CCCC[C@@H]1C(=O)O)c1ccccc1CO |  |
| inactive | O=C(O)C1CCCCC1C(=O)N1CCc2ccccc2C1c1ccccc1 (stereo not drawn) |  |
| inactive | COC(=O)C1CCCCC1C(=O)N1CCc2ccccc2C1CN1C(=O)c2ccccc2C1=O (stereo not drawn) |  |
